From patent publication US20230041563A1, “N-(1,3,4-OXADIAZOL-2-YL)ARYLCARBOXAMIDES OR SALTS THEREOF, PREPARATION METHODS, HERBICIDAL COMPOSITIONS AND USES THEREOF” (priority 2018, published 2023)
Read-outs that look alike come from different tables or passages of the source.

Test system: weeds
Assay: Actual control effects and combined effects of mixtures of active ingredients (i) and (ii), stem-leaf treatment, Gowing method
Type: in vivo
Settings: 20 days
Protocol: According to the actual control effect and the property of the herbicides, the balance of the formula and other factors, the optimal ratio was determined. In the calculation formula: X represents the fresh weight inhibition rate when the active ingredient (i) is used in an amount of P; and Y represents the fresh weight inhibition rate when the active ingredient (ii) is used in an amount of Q. The statistical results are shown in Tables 9-11 below.

[1] = 480 h, Echinochloa phyllopogon, (ii) 0.6 g a.i./mu, stem-leaf treatment, read-out: Control effect of (ii) alone at corresponding dose
[2] = 480 h, Echinochloa phyllopogon, (ii) 3 g a.i./mu, stem-leaf treatment, read-out: Control effect of (ii) alone at corresponding dose
[3] = Echinochloa phyllopogon, (ii) 0.6 g a.i./mu
[4] = Echinochloa phyllopogon, (ii) 3 g a.i./mu
[5] = 480 h, Echinochloa phyllopogon, (ii) 30 g a.i./mu, read-out: Control effect of (ii) alone at corresponding dose
[6] = 480 h, Echinochloa phyllopogon, (ii) 15 g a.i./mu, stem-leaf treatment, read-out: Control effect of (ii) alone at corresponding dose
[7] = Echinochloa phyllopogon, (ii) 15 g a.i./mu
[8] = 480 h, Echinochloa phyllopogon, (ii) 0.6 g a.i./mu, read-out: Control effect of (ii) alone at corresponding dose
[9] = Cyperus difformis, (ii) 1 g a.i./mu
[10] = Echinochloa phyllopogon, (ii) 3 g a.i./mu, stem-leaf treatment
[11] = Echinochloa phyllopogon, (ii) 30 g a.i./mu
[12] = Monochoria vaginalis, (ii) 1 g a.i./mu
[13] = Pontederia vaginalis, 480 h, Monochoria vaginalis, (ii) 0.5 g a.i./mu, read-out: Control effect of (ii) alone at corresponding dose
[14] = Echinochloa phyllopogon, (ii) 8 g a.i./mu

`CC(C)c1ccc(NC(=O)N(C)C)cc1` [Isoproturon] was tested, and the pest or weed control at 9 g/ha [1] was 20.3%, the pest or weed control at 45 g/ha [2] was 40.2% and the “Control effect of (ii) alone at corresponding dose” value (“Control effect of (ii) alone” for short) [3] was 20.3%. For the same compound, the “Control effect of (ii) alone” value [4] was 40.2%.
In the case of `CCC(Oc1ccc(F)c(C(F)(F)F)c1)C(=O)NCc1ccccc1` (stereo not drawn) [Beflubutamid], the “Control effect of (ii) alone” value (Monochoria vaginalis, (ii) 1.5 g a.i./mu) is reported as 15.3%, the “Control effect of (ii) alone” value (Monochoria vaginalis, (ii) 5 g a.i./mu) is reported as 40.3% and the “Control effect of (ii) alone” value (Monochoria vaginalis, (ii) 5 g a.i./mu, stem-leaf treatment) is reported as 40.3%.
In the case of `CC(C)N1C(=O)c2ccccc2NS1(=O)=O` [Bentazone], the pest or weed control at 27 g/ha (480 h, Cyperus difformis, (ii) 1.8 g a.i./mu, read-out: Control effect of (ii) alone at corresponding dose) is reported as 18.2%, the pest or weed control at 135 g/ha (480 h, Cyperus difformis, (ii) 9 g a.i./mu, stem-leaf treatment, read-out: Control effect of (ii) alone at corresponding dose) is reported as 40.4% and the “Control effect of (ii) alone” value (Cyperus difformis, (ii) 9 g a.i./mu) is reported as 40.4%.
With `CCC(C)n1c(=O)[nH]c(C)c(Br)c1=O` (stereo not drawn) [Bromacil] the pest or weed control at 45 g/ha [2] was 12.8%, the pest or weed control at 450 g/ha [5] was 59.7% and the “Control effect of (ii) alone” value [4] was 12.8%.
With `CC1=C(c2ccccc2)C(=O)N(C(C)(C)c2cc(Cl)cc(Cl)c2)CO1` [Oxaziclomefone] the pest or weed control at 9 g/ha [1] was 12.5%, the pest or weed control at 15 g/ha (480 h, Echinochloa phyllopogon, (ii) 1 g a.i./mu, stem-leaf treatment, read-out: Control effect of (ii) alone at corresponding dose) was 18.7% and the “Control effect of (ii) alone” value [3] was 12.5%. The “Control effect of (ii) alone” value (Echinochloa phyllopogon, (ii) 1 g a.i./mu) was 18.7%.
`CCCCOCN(C(=O)CCl)c1c(CC)cccc1CC` [Butachlor] was tested, and the pest or weed control at […] [6] was 19.3%, the pest or weed control at 450 g/ha [5] was 39.7% and the “Control effect of (ii) alone” value [7] was 19.3%.
In the case of `CSc1nnc(C(C)(C)C)c(=O)n1N` [Metribuzin], the pest or weed control at 9 g/ha [8] is reported as 9.1%, the pest or weed control at 45 g/ha [2] is reported as 32.3% and the “Control effect of (ii) alone” value [4] is reported as 32.3%.
In the case of `CS(=O)(=O)c1ccc(C(=O)C2C(=O)CCCC2=O)c(Cl)c1COCC1CCCO1` (stereo not drawn) [Tefuryltrione], the “Control effect of (ii) alone” value [9] is reported as 37.4%, the “Control effect of (ii) alone” value (Cyperus difformis, (ii) 1 g a.i./mu, stem-leaf treatment) is reported as 37.4% and the “Control effect of (ii) alone” value (Cyperus difformis, (ii) 1.8 g a.i./mu) is reported as 63.2%.
In the case of `O=C1C(Cl)C(CCl)CN1c1cccc(C(F)(F)F)c1` (stereo not drawn) [Fluorochloridone], the “Control effect of (ii) alone” value [4] is reported as 9.1%, the “Control effect of (ii) alone” value [10] is reported as 9.1% and the “Control effect of (ii) alone” value [11] is reported as 52.3%.
For `CC(C)Oc1cc(-n2nc(C(C)(C)C)oc2=O)c(Cl)cc1Cl` [Oxadiazon], the pest or weed control at 45 g/ha [2] was 14.3%, the pest or weed control at […] [6] was 41.3% and the “Control effect of (ii) alone” value [4] was 14.3%. For the same compound, the “Control effect of (ii) alone” value [7] was 41.3%.
In the case of `CCOC(=O)c1cnn(C)c1S(=O)(=O)NC(=O)Nc1nc(OC)cc(OC)n1` [Pyrazosulfuron-ethyl], the “Control effect of (ii) alone” value [12] is reported as 75.6%, the pest or weed control at 9 g/ha (Pontederia vaginalis, 480 h, Monochoria vaginalis, (ii) 0.6 g a.i./mu, read-out: Control effect of (ii) alone at corresponding dose) is reported as 54.5% and the pest or weed control at 15 g/ha (Pontederia vaginalis, 480 h, Monochoria vaginalis, (ii) 1 g a.i./mu, stem-leaf treatment, read-out: Control effect of (ii) alone at corresponding dose) is reported as 75.6%.
`CCCc1ccc2nc(Cl)c(S(=O)(=O)NC(=O)Nc3nc(OC)cc(OC)n3)n2n1` [Propyrisulfuron] was tested, and the “Control effect of (ii) alone” value (Cyperus difformis, (ii) 0.6 g a.i./mu) was 19.5%, the “Control effect of (ii) alone” value (Cyperus difformis, (ii) 1.5 g a.i./mu) was 46.3% and the “Control effect of (ii) alone” value (Cyperus difformis, (ii) 1.5 g a.i./mu, stem-leaf treatment) was 46.3%.
For `O=C1CCCC(=O)C1C(=O)c1c(Cl)ccc2cc(Cl)cnc12` [Quintrione], the “Control effect of (ii) alone” value (Digitaria sanguinalis, (ii) 3 g a.i./mu, stem-leaf treatment) was 15.2%, the “Control effect of (ii) alone” value [4] was 15.8% and the “Control effect of (ii) alone” value [10] was 15.8%. The “Control effect of (ii) alone” value [11] was 66.7% and the “Control effect of (ii) alone” value (Echinochloa phyllopogon, (ii) 30 g a.i./mu, stem-leaf treatment) was 66.7%.
`CCCOCCN(C(=O)CCl)c1c(CC)cccc1CC` [Pretilachlor] was tested, and the pest or weed control at 45 g/ha [2] was 15.2%, the pest or weed control at […] [6] was 43.2% and the “Control effect of (ii) alone” value [4] was 15.2%. The “Control effect of (ii) alone” value [7] was 43.2%.
With `Cc1cc(Cl)ccc1OCC(=O)O` [MCPA] the “Control effect of (ii) alone” value (Monochoria vaginalis, (ii) 3 g a.i./mu) was 28.2% and the “Control effect of (ii) alone” value (Monochoria vaginalis, (ii) 3 g a.i./mu, stem-leaf treatment) was 28.2%.
In the case of `CCNc1nc(Cl)nc(NC(C)C)n1` [Atrazine], the pest or weed control at 9 g/ha [8] is reported as 2.3%, the pest or weed control at […] [6] is reported as 30.6% and the “Control effect of (ii) alone” value [7] is reported as 30.6%.
`CCNc1nc(NCC)nc(SC)n1` [Simetryn] was tested, and the pest or weed control at 9 g/ha [1] was 20.8%, the pest or weed control at […] [6] was 45.3% and the “Control effect of (ii) alone” value [3] was 20.8%. The “Control effect of (ii) alone” value [7] was 45.3%.
With `CCN(CC)C(=O)SCc1ccc(Cl)cc1` [Benthiocarb] the “Control effect of (ii) alone” value (Cyperus difformis, (ii) 3 g a.i./mu) was 15.2%, the “Control effect of (ii) alone” value (Cyperus difformis, (ii) 3 g a.i./mu, stem-leaf treatment) was 15.2% and the “Control effect of (ii) alone” value (Cyperus difformis, (ii) 30 g a.i./mu) was 50.3%.
`Cc1ccccc1CO[C@@H]1C[C@@]2(C(C)C)CC[C@]1(C)O2` (racemic) [Cinmethylin] was tested, and the pest or weed control at 45 g/ha [2] was 13.2%, the pest or weed control at […] (480 h, Echinochloa phyllopogon, (ii) 15 g a.i./mu, read-out: Control effect of (ii) alone at corresponding dose) was 54.5% and the “Control effect of (ii) alone” value [4] was 13.2%.
With `Cn1nc(C(F)(F)F)c(CS(=O)(=O)C2=NOC(C)(C)C2)c1OC(F)F` [Pyroxasulfone] the “Control effect of (ii) alone” value (Monochoria vaginalis, (ii) 9 g a.i./mu) was 34.5%, the pest or weed control at […] [13] was 6.3% and the pest or weed control at 135 g/ha (Pontederia vaginalis, 480 h, Monochoria vaginalis, (ii) 9 g a.i./mu, stem-leaf treatment, read-out: Control effect of (ii) alone at corresponding dose) was 34.5%.
With `CC(C)=C1OC(=O)N(c2cc(OC3CCCC3)c(Cl)cc2F)C1=O` [Pentoxazone] the “Control effect of (ii) alone” value (Monochoria vaginalis, (ii) 10 g a.i./mu) was 43.6%, the pest or weed control at […] [13] was 6.4% and the pest or weed control at 150 g/ha (Pontederia vaginalis, 480 h, Monochoria vaginalis, (ii) 10 g a.i./mu, stem-leaf treatment, read-out: Control effect of (ii) alone at corresponding dose) was 43.6%.
`COc1nc(OC)nc(C(=O)c2cccc(F)c2N(C)S(=O)(=O)C(F)F)n1` [Triafamone] was tested, and the “Control effect of (ii) alone” value (Monochoria vaginalis, (ii) 0.5 g a.i./mu) was 16.3%, the “Control effect of (ii) alone” value (Monochoria vaginalis, (ii) 0.5 g a.i./mu, stem-leaf treatment) was 16.3% and the “Control effect of (ii) alone” value [12] was 29.6%. For the same compound, the “Control effect of (ii) alone” value (Monochoria vaginalis, (ii) 1 g a.i./mu, stem-leaf treatment) was 29.6%.
For `Cc1nn(C)cc1C(=O)Oc1c(C(=O)c2ccc(C(F)(F)F)cc2S(C)(=O)=O)c(C)nn1C` [Shuangzuocaotong], the “Control effect of (ii) alone” value (Digitaria sanguinalis, (ii) 8 g a.i./mu, stem-leaf treatment) was 75.1%, the “Control effect of (ii) alone” value [3] was 7.8% and the “Control effect of (ii) alone” value (Echinochloa phyllopogon, (ii) 0.6 g a.i./mu, stem-leaf treatment) was 7.8%. The “Control effect of (ii) alone” value [14] was 70.9% and the “Control effect of (ii) alone” value (Echinochloa phyllopogon, (ii) 8 g a.i./mu, stem-leaf treatment) was 70.9%.
With `COc1cc(OC)nc(Oc2cccc(Oc3nc(OC)cc(OC)n3)c2C(=O)O)n1` [Bispyribac-sodium] the pest or weed control at 9 g/ha (480 h, Cyperus difformis, (ii) 0.6 g a.i./mu, read-out: Control effect of (ii) alone at corresponding dose) was 39.5%, the pest or weed control at 15 g/ha (480 h, Cyperus difformis, (ii) 1 g a.i./mu, stem-leaf treatment, read-out: Control effect of (ii) alone at corresponding dose) was 70.4% and the “Control effect of (ii) alone” value [9] was 70.4%.
In the case of `CCOc1cc(Oc2ccc(C(F)(F)F)cc2Cl)ccc1[N+](=O)[O-]` [Oxyfluorfen], the pest or weed control at 3 g/ha (480 h, Echinochloa phyllopogon, (ii) 0.2 g a.i./mu, stem-leaf treatment, read-out: Control effect of (ii) alone at corresponding dose) is reported as 6.7%, the pest or weed control at 120 g/ha (480 h, Echinochloa phyllopogon, (ii) 8 g a.i./mu, stem-leaf treatment, read-out: Control effect of (ii) alone at corresponding dose) is reported as 76.5% and the “Control effect of (ii) alone” value (Echinochloa phyllopogon, (ii) 0.2 g a.i./mu) is reported as 6.7%. The “Control effect of (ii) alone” value [14] was 76.5%.
`CN(C(=O)COc1nc2ccccc2s1)c1ccccc1` [Mefenacet] was tested, and the pest or weed control at 45 g/ha [2] was 19.2%, the pest or weed control at […] [6] was 46.7% and the “Control effect of (ii) alone” value [4] was 19.2%. The “Control effect of (ii) alone” value [7] was 46.7%.
With `Cc1ccc(NC(=O)N(C)C)cc1Cl` [Chlortoluron] the pest or weed control at 9 g/ha [1] was 18.3%, the pest or weed control at […] [6] was 57.6% and the “Control effect of (ii) alone” value [3] was 18.3%. The “Control effect of (ii) alone” value [7] was 57.6%.
